US20090048267A1, “MEDICAMENTS FOR THE TREATMENT OR PREVENTION OF FIBROTIC DISEASES” (Boehringer Ingelheim International GmbH, priority 2004, published 2009)

Legend:
[1] = system: fibronectin gene expression; experiment: Expression of fibrotic marker genes following bleomycin-induced pulmonary fibrosis (real time PCR, lung): fibronectin; type: in vivo, Male Wistar rats; conditions: bleomycin 10 U/kg intratracheal; daily oral treatment with 50 mg/kg, days 1-21; lung RNA at day 21; vs bleomycin + vehicle; FIG. 3
Experimental: (§1) All experiments were performed in accordance with German guidelines for animal welfare, performed by persons certified to work with animals and approved by the responsible authorities. Male Wistar rats were intratracheally injected with Bleomycin sulfate (10 U/kg body weight in 300 μl saline) or saline alone (saline control) using a catheter (0.5 mm internal diameter, […]) through the nasal passage, following exposure to the anaesthetic Isofluorane for 5 minutes. The following day, the rats were orally treated with Example A (compound (12)) or saline suspended in 1 ml 0.1% Natrosol. Control rats were administered 1 ml 0.1% Natrosol (vehicle control).
(§2) 21 days following bleomycin instillation, the rats were killed with a lethal intraperitoneal injection of Narcoren™ (Pentobarbital Sodium, Rhone Merieux). The lungs were then removed, blotted dry and half was snap frozen in liquid nitrogen and stored at −80° C. The other half was fixed in 4% formalin for subsequent paraffin embedding and histology.
(§3) (B) Effect of a representative compound on expression of fibrotic marker genes following bleomycin-induced pulmonary fibrosis.
(§4) One part of the frozen lung tissue dedicated to investigation of gene expression was cut into small pieces using a sterile scalpel blade. […] The concentration of each sample was then measured using a spectrophotometer. […]

[2] = system: bleomycin-induced pulmonary fibrosis; experiment: Effect on lung morphology following bleomycin-induced pulmonary fibrosis (histology, Masson's Trichrome staining); type: in vivo, Male Wistar rats; conditions: bleomycin 10 U/kg intratracheal; daily oral treatment with 50 mg/kg, days 1-21; lungs removed 21 days after bleomycin; FIG. 1C
Experimental: (A) Effect of a representative compound on lung morphology following bleomycin-induced pulmonary fibrosis. Bleomycin sulfate (Bleomycin […]) was purchased from a local pharmacy. All experiments were performed in accordance with German guidelines for animal welfare, performed by persons certified to work with animals and approved by the responsible authorities. Male Wistar rats were intratracheally injected with Bleomycin sulfate (10 U/kg body weight in 300 μl saline) or saline alone (saline control) using a catheter (0.5 mm internal diameter, […]) through the nasal passage, following exposure to the anaesthetic Isofluorane for 5 minutes. The following day, the rats were orally treated with Example A (compound (12)) or saline suspended in 1 ml 0.1% Natrosol. Control rats were administered 1 ml 0.1% Natrosol (vehicle control). [table] 21 days following bleomycin instillation, the rats were killed with a lethal intraperitoneal injection of NarcorenTM (Pentobarbital Sodium, Rhone Merieux). The lungs were then removed, blotted dry and half was snap frozen in liquid nitrogen and stored at -80° C. The other half was fixed in 4% formalin for subsequent paraffin embedding and histology. […] Collagen deposition was assessed using Masson's Trichrome staining.

[3] = system: procollagen I gene expression; experiment: Expression of fibrotic marker genes following bleomycin-induced pulmonary fibrosis (real time PCR, lung): procollagen I; type: in vivo, Male Wistar rats; conditions: bleomycin 10 U/kg intratracheal; daily oral treatment with 50 mg/kg, days 1-21; lung RNA at day 21; vs bleomycin + vehicle; FIG. 2
Experimental: as §1, §2, §3, §4

Row | Structure (SMILES) | melting point | expression of fibrotic marker genes: fibronectin (normalized to 18S) [1] | lung fibrosis (lung morphology, collagen deposition by Masson's Trichrome staining) [2] | expression of fibrotic marker genes: procollagen I (normalized to 18S) [3]
1 | COC(=O)c1ccc2c(c1)NC(=O)/C2=C(\Nc1ccc(C(=O)N2CCN(C)[C@@H](C)C2)cc1)c1ccccc1 [(60), (S)-3-(Z)-[1-{4-[(3,4-dimethyl-piperazin-1-yl)-carbonyl]-phenylamino}-1-phenyl-methylidene]-6-methoxycarbonyl-2-indolinone] | 265 to 266 °C | – | – | –
2 | COC(=O)c1ccc2c(c1)NC(=O)/C2=C(\Nc1ccc(C(=O)N2CCN(C)CC2)cc1)c1ccccc1 [Example A, methyl 3-(Z)-[1-{4-[(4-methyl-piperazin-1-yl)-carbonyl]-phenylamino}-1-phenyl-methylidene]-2-indolinone-6-carboxylate] | – | significant (p<0.0001) inhibition | nearly complete reversal of lung fibrosis | significant (p<0.0001) inhibition
